Source: patent US20070244080A1, “Method for Treatment of Inflammatory Disorders Using Triptolide Compounds” (priority 2004, published 2007)

Key:
[1] = test system: IL-2 production in Jurkat cells; details: cited from earlier work
[2] = Phase I clinical trial, tolerability; type: in vivo, human; details: 0.675 μg/m^2 by i.v. infusion, weekly intervals
Experimental: In accordance with the invention, administration of a triptolide compound is expected to inhibit cytokine production, particularly TGF-β production, in a patient suffering from obliterative airway disease, renal fibrosis, diabetic nephropathy, or liver fibrosis, thereby reducing the symptoms of the disease. A range of doses is practical for this treatment. […] This dose calculates to about 20 μg/kg. Treatment in this clinical study is administered at weekly intervals.

[3] = Conversion of triptolide prodrug to triptolide in blood serum (TLC); type: in vitro ADME; details: 37° C.
Experimental: A solution of triptolide succinate in DMSO (25 mg/ml, 0.1 ml) was mixed with 0.5 ml of rat serum. The mixture was incubated at 37° C. Aliquots of the mixture were taken at 1, 3, 5, 15, 45 minutes and 18 hours and analyzed by thin layer chromatography (TLC). The TLC plates were developed in 1:5 CH2Cl2/Et2O. After development, the plates were treated with iodine vapor and examined under a UV lamp. Triptolide and triptolide succinate were used as reference compounds (Rf=0.60 and 0.45, respectively). […] After 15 minutes, the triptolide succinate spot had disappeared (Rf=0.45), and a new spot corresponding to triptolide had appeared (Rf=0.60).

[4] = in vivo; cited from earlier work
[5] = test system: human T cell lymphoma (Jurkat) cells; details: relative to native triptolide; cited from earlier work
[6] = test system: cytokine genes in activated Jurkat cells; details: cited from earlier work
IL-2 [7] = assay: Suppression of cytokine production, PMA/ionomycin-induced Jurkat cells, ELISA; type: cell-based, human; details: 8 hr
Experimental: (§1) Triptolide suppresses in vitro production of proinflammatory cytokines such as IFN-γ, TNF-α, IL-1β and IL-6, as shown in Table 1. To obtain the data, Jurkat cells were stimulated for 8 hr by PMA and ionomycin. Human peripheral blood mononuclear cells (PBMC) from a single donor were incubated for 24 hr with PHA. At the end of the culture period, each supernatant was harvested, and the cytokine content was assayed by ELISA.

IL-8 = details: bronchial epithelial cells; cited from earlier work
TNF-α = assay: Suppression of cytokine production, PHA-induced PBMC, ELISA; type: cell-based, human; details: 24 hr, single donor
Experimental: as §1

IL-1β = assay: as above; type: cell-based, human; details: 24 hr, single donor
Experimental: as §1

IFN-γ = assay: as above; type: cell-based, human; details: 24 hr, single donor
Experimental: as §1

IL-2 [8] = assay: as above; type: cell-based, human; details: 24 hr, single donor
Experimental: as §1

IL-6 = assay: as above; type: cell-based, human; details: 24 hr, single donor
Experimental: as §1

CC(C)[C@]12O[C@H]1[C@@H]1O[C@]13[C@]1(O[C@H]1C[C@H]1c4c(C(=O)c5ccccc5)oc(OC(=O)c5ccccc5)c4CC[C@@]13C)[C@@H]2O [PG796, 18-deoxo-19-dehydro-18-benzoyloxy-19-benzoyl triptolide]
IL-2 inhibition activity compared with triptolide 14-succinate ([1]; relative to the prodrug triptolide 14-succinate): higher level of activity

triptolide succinate sodium salt [PG490-88Na]
Tolerability in phase I clinical trial [2]: well tolerated with no drug-related toxicity

triptolide 14-succinate [PG490-88]
Species detected by TLC after incubation in rat serum ([3]; after 3 minutes): only triptolide succinate was detected
Species detected by TLC after incubation in rat serum ([3]; after 15 minutes): disappeared
Efficacy in animal models of immunosuppression [4]: efficacy in several animal models of immunosuppression
Suppression of IL-2 production ([1]; after incubation in plasma): in vitro activity in suppression of IL-2 production

CC(C)[C@]12O[C@H]1[C@@H]1O[C@]13[C@]1(O[C@H]1C[C@H]1C4=C(CC[C@@]13C)C(=O)OC4)[C@H]2F [PG763, 14-deoxy-14α-fluoro triptolide]
Cytotoxicity compared with native triptolide [5]: nearly equivalent
IL-2 inhibition activity compared with native triptolide ([1]; relative to native triptolide): nearly equivalent

triptolide
Expression of cytokine genes (IL-2, IL-3, IL-6, IL-8, IL-13, TNF-α, TGF-β, MIP-1α, MIP-1β, GM-CSF, RANTES) [6]: inhibits the expression of several cytokine genes
IC50, suppression of IL-2 production (IL-2 [7]): 1.3 ng/mL
IL-8 mRNA and protein expression (IL-8): suppresses IL-8 expression
IC50, suppression of TNF-α production (TNF-α): 0.35 ng/mL
IC50, suppression of IL-1β production (IL-1β): 0.45 ng/mL
IC50, suppression of IFN-γ production (IFN-γ): 0.52 ng/mL
IC50, suppression of IL-2 production (IL-2 [8]): 0.38 ng/mL
IC50, suppression of IL-6 production (IL-6): 1.5 ng/mL
